Experimental findings from ChEMBL document CHEMBL2412960, “Inhibition of Mycobacterium tuberculosis strains H37Rv and MDR MS-115 by a new set of C5 modified pyrimidine nucleosides” (Bioorg Med Chem, 2013) are described below.

Test [1] has as its system Mycobacterium tuberculosis. The experiment in a line: Bacteriostatic activity against rifampicin, isoniazid, streptomycin, ethambutol and pyrazinamide-resistant Mycobacterium tuberculosis MS-115 assessed as growth inhibition at 2 to 200 ug/mL relative to control. In kind it is functional, organism-based.
The test system of test [2] is Mycobacterium tuberculosis. The experiment in a line: Bacteriostatic activity against rifampicin, isoniazid, streptomycin, ethambutol and pyrazinamide-resistant Mycobacterium tuberculosis MS-115 assessed as growth inhibition. In kind it is functional.
The subject of test [3] is Mycobacterium tuberculosis. Briefly: Bacteriostatic activity against rifampicin, isoniazid, streptomycin, ethambutol and pyrazinamide-resistant Mycobacterium tuberculosis MS-115 assessed as growth inhibition at 10 ug/mL relative to control. Format: functional. The settings on record: read-out: GI.
In test [4] the test system is Mycobacterium tuberculosis. The experiment in a line: Bacteriostatic activity against rifampicin, isoniazid, streptomycin, ethambutol and pyrazinamide-resistant Mycobacterium tuberculosis MS-115 assessed as growth inhibition at 50 ug/mL relative to control. In kind it is functional. The settings on record: read-out: GI.
Test [5] has as its system Mycobacterium tuberculosis. The experiment in a line: Bacteriostatic activity against rifampicin, isoniazid, streptomycin, ethambutol and pyrazinamide-resistant Mycobacterium tuberculosis MS-115 assessed as growth inhibition at 5 ug/mL relative to control. The settings on record: read-out: GI. Format: functional.
Test [6] has as its system Mycobacterium tuberculosis. Briefly: Bacteriostatic activity against rifampicin, isoniazid, streptomycin, ethambutol and pyrazinamide-resistant Mycobacterium tuberculosis MS-115 assessed as growth inhibition at 20 ug/mL relative to control. The settings on record: read-out: GI. Format: functional.
The test system of test [7] is Mycobacterium tuberculosis. Briefly: Bacteriostatic activity against rifampicin, isoniazid, streptomycin, ethambutol and pyrazinamide-resistant Mycobacterium tuberculosis MS-115 assessed as growth inhibition at 200 ug/mL relative to control. In kind it is functional. The settings on record: read-out: GI.
Test [8] concerns Mycobacterium tuberculosis. The experiment in a line: Bacteriostatic activity against rifampicin, isoniazid, streptomycin, ethambutol and pyrazinamide-resistant Mycobacterium tuberculosis MS-115 assessed as growth inhibition at 2 ug/mL relative to control. In kind it is functional. The conditions noted are these: read-out: GI.

In brackets after ≈: the same amount, converted by molar mass. Activity calls are given as the source filed them. The rule behind the calls is not given here.

For the molecule `CN[C@@H]1[C@H](O[C@H]2[C@H](O[C@H]3[C@H](O)[C@@H](O)[C@H](N=C(N)N)[C@@H](O)[C@@H]3N=C(N)N)O[C@@H](C)[C@]2(O)C=O)O[C@@H](CO)[C@H](O)[C@H]1O`, the “growth inhibition (GI)” value in test [1] was “inactive”.

For `NNC(=O)c1ccncc1` [ISONIAZID], in test [1], the “growth inhibition (GI)” value was “inactive”. Also, in test [2], the MIC99 entry is “inactive”.

Regarding `CC[C@@H](CO)NCCN[C@@H](CC)CO`, the “growth inhibition (GI)” value in test [1] is “inactive”.

In the case of `CCCCCCCCCCCCc1cn(Cc2cn([C@H]3C[C@H](O)[C@@H](CO)O3)c(=O)[nH]c2=O)nn1`, in test [3], the inhibition of growth at 10 µg/mL was 99%. In addition, the inhibition of growth at 50 µg/mL in test [4] turned out to be 100%. The inhibition of growth at 5 µg/mL in test [5] stood at 90%. Moreover, in test [6], the inhibition of growth at 20 µg/mL was determined as 99%. The MIC99 in test [2] was 10 mg/L (≈ 20.9 µM).

For the molecule `NC(=O)c1cnccn1`, the “growth inhibition (GI)” value in test [1] was “inactive”.

In the case of `CO[C@H]1/C=C/O[C@@]2(C)Oc3c(C)c(O)c4c(O)c(c(/C=N/N5CCN(C)CC5)c(O)c4c3C2=O)NC(=O)/C(C)=C\C=C\[C@H](C)[C@H](O)[C@@H](C)[C@@H](O)[C@@H](C)[C@H](OC(C)=O)[C@@H]1C` [RIFAMPIN], in test [1], the “growth inhibition (GI)” value was “inactive”. The MIC99 result in test [2] is “inactive”.

Take `CCCCCCCCCCCCOCc1cn([C@H]2C[C@H](N)[C@@H](CO)O2)c(=O)[nH]c1=O`: in test [4], the inhibition of growth at 50 µg/mL is 100%. Also, in test [6], the inhibition of growth at 20 µg/mL came to 100%. Further, the MIC99 in test [2] was determined as 20 mg/L (≈ 47 µM). Further, the inhibition of growth at 200 µg/mL in test [7] is 100%.

As for `CCCCCCCCCCCCc1cn(Cc2cn([C@H]3C[C@H](O)[C@@H](CO)O3)c(=O)nc2N)nn1`, the inhibition of growth at 10 µg/mL in test [3] turned out to be 99%. Moreover, in test [4], the inhibition of growth at 50 µg/mL came to 100%. Also, in test [6], the inhibition of growth at 20 µg/mL was 100%. Moreover, the MIC99 in test [2] worked out at 10 mg/L (≈ 21 µM).

Consider `CCCCCCCCCCc1cn(Cc2cn([C@H]3C[C@H](O)[C@@H](CO)O3)c(=O)nc2N)nn1`, for which the inhibition of growth at 50 µg/mL in test [4] is 100%. For the same molecule, the inhibition of growth at 20 µg/mL in test [6] is 75%. In test [2], the MIC99 worked out at 50 mg/L (≈ 111 µM).

Consider `CC1COc2c(N3CCN(C)CC3)c(F)cc3c(=O)c(C(=O)O)cn1c23` (centres undefined) [OFLOXACIN], for which, in test [8], the inhibition of growth at 2 µg/mL was 100%. Besides, the MIC99 in test [2] was determined as 2 mg/L (≈ 5.53 µM).

On to `CCCCCCCCCCCCOCc1cn([C@H]2C[C@H](O)[C@@H](CO)O2)c(=O)[nH]c1=O`, for which the inhibition of growth at 50 µg/mL in test [4] is 100%. The inhibition of growth at 2 µg/mL in test [8] was found to be 50%. For the same molecule, the MIC99 in test [2] was determined as 50 mg/L (≈ 117 µM). For the same molecule, the inhibition of growth at 200 µg/mL in test [7] came to 100%.

For the molecule `CCCCCCCCCCc1cn(Cc2cn([C@H]3C[C@H](O)[C@@H](CO)O3)c(=O)[nH]c2=O)nn1`, the inhibition of growth at 10 µg/mL in test [3] came out at 99%. The inhibition of growth at 50 µg/mL in test [4] came to 100%. Besides, the inhibition of growth at 5 µg/mL in test [5] stood at 75%. Moreover, the inhibition of growth at 20 µg/mL in test [6] stood at 100%. Also, the MIC99 in test [2] is 10 mg/L (≈ 22.2 µM).
